Literature values, collected in PubChem BioAssay AID1259409 (Chemical Carcinogenesis Research Information System (CCRIS), 2018).

System: rodent chemically induced tumor inhibition, incidence and multiplicity
Experiment: CCRIS tumor inhibitor studies
Conditions: 50-32-8, Route [Inhibitor]: ORAL, Species: MOUSE, Strain/Sex: ICR/FEMALE, Promoter: NONE USED
Text: The CCRIS database contains chemical records with carcinogenicity, mutagenicity, tumor promotion, and tumor inhibition test results. It was developed by the National Cancer Institute (NCI). Data are derived from studies cited in primary journals, current awareness tools, NCI reports, and other sources. Test results have been reviewed by experts in carcinogenesis and mutagenesis.
CCRIS provides historical information from the years 1985 - 2011. It is no longer updated.
This is an archive assay for CCRIS tumor inhibitor studies.

Row | SMILES | tumour outcome (control, treated, inhibition, significance) (Carcinogen: BENZO[A]PYRENE, Dose [Inhibitor]: 0, 25 PPM IN DIET FOR 17 WK BEGINNING 1 WK POST CARCINOGEN TREATMENT (STUDY DURATION: 21 WK), Target Tissue: Type of Lesion: FORESTOMACH: TUMOR, Dose [Carcinogen]: 1.5 MG IN 0.2 ML CORN OIL 1/WK FOR 4 WK) | tumour outcome (control, treated, inhibition, significance) (Carcinogen: BENZO[A]PYRENE, Dose [Inhibitor]: 0, 50 PPM IN DIET FOR 17 WK BEGINNING 1 WK POST CARCINOGEN TREATMENT (STUDY DURATION: 21 WK), Target Tissue: Type of Lesion: FORESTOMACH: TUMOR, Dose [Carcinogen]: 1.5 MG IN 0.2 ML CORN OIL 1/WK FOR 4 WK) | tumour outcome (control, treated, inhibition, significance) (Carcinogen: BENZO[A]PYRENE, Dose [Inhibitor]: 0, 75 PPM IN DIET FOR 17 WK BEGINNING 1 WK POST CARCINOGEN TREATMENT (STUDY DURATION: 21 WK), Target Tissue: Type of Lesion: FORESTOMACH: TUMOR, Dose [Carcinogen]: 1.5 MG IN 0.2 ML CORN OIL 1/WK FOR 4 WK) | tumour outcome (control, treated, inhibition, significance) (Carcinogen: BENZO[A]PYENE, Dose [Inhibitor]: 0.06 MMOL/G DIET DAILY FOR 6 WK CONCURRENT WITH CARCINOGEN TREATMENT FOLLOWED BY 14 WK ON STANDARD DIET (STUDY DURATION:, Target Tissue: Type of Lesion: FORESTOMACH: NEOPLASM, Dose [Carcinogen]: 0.3 MG/G IN DIET DAILY FOR 6 WK)
1 | CC1=C(O)C(=O)C(C)O1 (centres undefined) | 90%, 74%, 18%, not significant | 90%, 72%, 20%, p<0.1 | 90%, 62%, 31%, p<0.05 | –
2 | CCC(C)SSC(C)CC (centres undefined) | – | – | – | 40%, 41%, -3%, not significant
